9 compounds from ChEMBL document CHEMBL4825667, “α-Glucosidase Inhibitors from Ageratina grandifolia” (J Nat Prod, 2021) can be followed below.

Test [1] can be described thus: Inhibition of yeast Alpha-glucosidase using p-nitro phenyl-alpha-D-glucopyranoside as a substrate measured after 20 mins by spectrophotocolorimetric analysis. Also noted: species or system Saccharomyces cerevisiae.
For test [2], the system named is Saccharomyces cerevisiae. The experiment in a line: Mixed type inhibition of yeast Alpha- glucosidase assessed as increase in Km using varying levels of p-NPG as substrate measured after 20 mins by reciprocal Lineweaver-Burk plot analysis.
Test [3] concerns Saccharomyces cerevisiae. The experiment in a line: Mixed type inhibition of yeast Alpha- glucosidase assessed as decrease in Vmax using varying levels of p-NPG as substrate measured after 20 mins by reciprocal Lineweaver-Burk plot analysis.
The species entered for test [4] is Homo sapiens. Nature of the test: Inhibition of Type-1 alpha glucosidase (unknown origin).
The species named for test [5] is Homo sapiens. Nature of the test: Inhibition of Type-2 alpha glucosidase (unknown origin).

The source made the active and inactive calls. The rule behind the calls is not given here.

In turn, `COc1cc2c(cc1C(C)O)C=CC(C)(C)O2` (stereo not drawn) registered an IC50 in test [1] of 672 µM.

`C/C=C(/C)C(=O)O[C@@H](c1cc(C(C)=O)ccc1O)[C@H]1OC1(C)C` showed an IC50 in test [1] of 288 µM.

As to `COc1cc2c(cc1C(C)=O)C=CC(C)(C)O2` [ENCECALIN], the IC50 in test [1] came to 440 µM.

Compound `O=C(/C=C/c1ccc(O)c(O)c1)OC[C@H]1O[C@@H](Oc2cc3oc(-c4ccc(O)cc4)c(O)c(=O)c3c(O)c2O)[C@H](O)[C@@H](O)[C@@H]1O` registered a concentration for half-maximal inhibition (IC50) in test [1] of 6.94 µM.

Take `CC(=O)c1ccc2c(c1)C=CC(C)(C)O2`: the half-inhibitory concentration (IC50) in test [1] worked out at 460 µM.

In test [1], `O=c1c(O)c(-c2ccc(O)c(O)c2)oc2cc(O[C@@H]3O[C@H](CO)[C@@H](O)[C@H](O)[C@H]3O)c(O)c(O)c12` yielded an IC50 of 402 µM.

For the compound `O=C(/C=C/c1ccc(O)c(O)c1)OC[C@H]1O[C@@H](Oc2cc3oc(-c4ccc(O)c(O)c4)c(O)c(=O)c3c(O)c2O)[C@H](O)[C@@H](O)[C@@H]1O`, in the test on Saccharomyces cerevisiae [2], the Km was determined as 610 µM. Moreover, the Vmax in the test with Saccharomyces cerevisiae [3] was 1.42 mM/min. The same compound had a half-inhibitory concentration (IC50) in test [1] of 0.79 µM.

Compound `COc1cc2c(cc1C(C)OC)C=CC(C)(C)O2` (stereo not drawn) registered a half-maximal inhibitory concentration (IC50) in test [1] of 404 µM.

In the case of `C[C@H]1O[C@H](O[C@H]2[C@H](O)[C@@H](O)[C@@H](O[C@H]3[C@H](O)[C@@H](O)C(O)O[C@@H]3CO)O[C@@H]2CO)[C@H](O)[C@@H](O)[C@@H]1N[C@H]1C=C(CO)[C@@H](O)[C@H](O)[C@H]1O` (stereo partly drawn) [ACARBOSE], the inhibition result in the test listed under Homo sapiens [4] and in the test filed under Homo sapiens [5] was “Active” throughout. Moreover, the IC50 in test [1] came out at 279 µM.
